By EC50 is commonly meant the concentration giving half of the maximal effect. A low value points to higher potency in that assay.

SMILES strings stand for the structures.

The assay has as its target T1, ERR1 (also known as ERR-α or ERR-1) (Homo sapiens, UniProt P11474).
T1 sequence (P11474 193-421 limits assumed): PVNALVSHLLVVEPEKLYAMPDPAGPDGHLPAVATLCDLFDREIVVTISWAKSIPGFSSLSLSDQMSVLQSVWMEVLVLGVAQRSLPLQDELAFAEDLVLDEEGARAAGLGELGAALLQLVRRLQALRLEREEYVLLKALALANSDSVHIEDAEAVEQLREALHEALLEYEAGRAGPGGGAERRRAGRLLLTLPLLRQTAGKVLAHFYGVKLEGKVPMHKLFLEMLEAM
Briefly: TR-FRET assay (disruption of co-activator peptide binding to ERR1 LBD). Format: biochemical. The note with it: 6 nM 6His-ERR1LBD, 6 nM GST-SRC-2 peptide; average of 3 independent experiments. Here is the method: Time-Resolved Fluorescence Resonance Energy Transfer (TR-FRET) experiments were performed to examine the functional response of ERR1 (also known as ERR-α or ERR-1) ligands. The TR-FRET assay described herein relied on the conformation of ERR1 for binding to a co-activator peptide: when a test compound binds to ERR1 and alters its conformation, it can disrupt the binding of the co-activator peptide. The components of this homogeneous secondary assay included: the ^6His-tagged-ERR1LBD, a GST-labeled-hSRC2 co-activator polypeptide and a fluorescent donor/acceptor pair from CIS bio international htrf/bioassays (Bedford, Mass.) using both an α-GST Europium (Eu) Cryptate label and an α^6His-XL665 (allophycocyanin) fluorophore.
For TR-FRET measurements, the reaction was buffered in 25 mM Tris pH 8, 2.5 mM Hepes, 20 mM KCl, 1 mM DTT, and 0.05 mg/mL BSA (delipidated). The final concentrations of reagents were 6 nM of ERR1LBD, 6 nM GST-SRC-2 peptide, 30 nM Eu cryptate, and 7.5 nM a^6His-XL665. Reactions were allowed to reach equilibrium at 25° C. for 4-18 h before collecting data on the Analyst from LJL Biosystems (Molecular Devices Sunnyvale, Calif.). […] Dose response curves were fitted using a hyperbolic equation and the data reported is the average of 3 independent experiments.
`CS(=O)(=O)NCCN1C(=O)S/C(=C\c2ccc3c(cnn3Cc3ccc(Cl)cc3C(F)(F)F)c2)C1=O` [Compound 158, N-{2-[(5Z)-5-({1-[4-Chloro-2-(trifluoromethyl)benzyl]-1H-indazol-5-yl}methylidene)-2,4-dioxo-1,3-thiazolidin-3-yl]ethyl}methanesulfonamide] returned an EC50 of 0.021 µM.
In the case of `O=C(O)CN1C(=O)S/C(=C\c2ccc3c(cnn3Cc3ccc(Cl)cc3C(F)(F)F)c2F)C1=O` [Compound 347, [(5Z)-5-({1-[4-Chloro-2-(trifluoromethyl)benzyl]-4-fluoro-1H-indazol-5-yl}methylidene)-2,4-dioxo-1,3-thiazolidin-3-yl]acetic acid], the EC50 came out at 0.116 µM.
`O=C1S/C(=C\c2ccc3c(cnn3Cc3ccc(Cl)cc3C(F)(F)F)c2)C(=O)N1CCN1CCCC(F)C1` (stereo not shown) [Compound 74, (5Z)-5-({1-[4-Chloro-2-(trifluoromethyl)benzyl]-1H-indazol-5-yl}methylidene)-3-[2-(3-fluoropiperidin-1-yl)ethyl]-1,3-thiazolidine-2,4-dione] registered a 50% effective concentration (EC50) of 0.11 µM. This EC50 and that of the compound before are within 1.5-fold of each other.
`NC(=O)CN1CCC[C@@H]1CN1C(=O)S/C(=C\c2ccc3c(cnn3Cc3ccc(Cl)cc3C(F)(F)F)c2)C1=O` [Compound 298, 2-[(2R)-2-{[(5Z)-5-({1-[4-Chloro-2-(trifluoromethyl)benzyl]-1H-indazol-5-yl}methylidene)-2,4-dioxo-1,3-thiazolidin-3-yl]methyl}pyrrolidin-1-yl]acetamide] registered a 50% effective concentration (EC50) of 0.049 µM.
Under `COC(=O)N1CCN(C(=O)CN2C(=O)S/C(=C\c3ccc4c(cnn4Cc4ccc(Cl)cc4C(F)(F)F)c3)C2=O)S1(=O)=O` [Compound 340, Methyl 5-{[(5Z)-5-({1-[4-chloro-2-(trifluoromethyl)benzyl]-1H-indazol-5-yl}methylidene)-2,4-dioxo-1,3-thiazolidin-3-yl]acetyl}-1,2,5-thiadiazolidine-2-carboxylate 1,1-dioxide] stands 0.053 µM; under `NC1CCCC(N2C(=O)S/C(=C\c3ccc4c(cnn4Cc4ccc(Cl)cc4C(F)(F)F)c3)C2=O)C1` (stereo not shown) [Compound 76, (5Z)-3-(3-Aminocyclohexyl)-5-({1-[4-chloro-2-(trifluoromethyl)benzyl]-1H-indazol-5-yl}methylidene)-1,3-thiazolidine-2,4-dione], 0.014 µM; under `CC(=O)NN1C(=O)S/C(=C\c2ccc3c(cnn3Cc3ccc(Cl)cc3C(F)(F)F)c2)C1=O` [Compound 356, N-[(5Z)-5-({1-[4-Chloro-2-(trifluoromethyl)benzyl]-1H-indazol-5-yl}methylidene)-2,4-dioxo-1,3-thiazolidin-3-yl]acetamide], 0.014 µM.
In the case of `CC(=O)NCCN1C(=O)S/C(=C\c2ccc3c(cnn3Cc3ccc(Cl)cc3C(F)(F)F)c2)C1=O` [Compound 389, N-{2-[(5Z)-5-({1-[4-Chloro-2-(trifluoromethyl)benzyl]-1H-indazol-5-yl}methylidene)-2,4-dioxo-1,3-thiazolidin-3-yl]ethyl}acetamide] it was 0.026 µM; in that of `O=C1S/C(=C\c2ccc3c(cnn3Cc3ccc(C(F)(F)F)cc3C(F)(F)F)c2)C(=O)N1[C@@H]1CNCC[C@H]1O` (relative stereo) [Compound 280, (5Z)-5-({1-[2,4-Bis(trifluoromethyl)benzyl]-1H-indazol-5-yl}methylidene)-3-[trans-4-hydroxypiperidin-3-yl]-1,3-thiazolidine-2,4-dione], 0.034 µM; in that of `O=C1S/C(=C\c2ccc3c(cnn3Cc3ccc(Cl)cc3C(F)(F)F)c2)C(=O)N1Cc1ncc[nH]1` [Compound 403, (5Z)-5-({1-[4-Chloro-2-(trifluoromethyl)benzyl]-1H-indazol-5-yl}methylidene)-3-(1H-imidazol-2-ylmethyl)-1,3-thiazolidine-2,4-dione], 0.02 µM.
Under `O=C1S/C(=C\c2ccc3c(cnn3Cc3ccc(Cl)cc3C(F)(F)F)c2)C(=O)N1C1(C(=O)O)CCNCC1` [Compound 230, 4-[(5Z)-5-({1-[4-Chloro-2-(trifluoromethyl)benzyl]-1H-indazol-5-yl}methylidene)-2,4-dioxo-1,3-thiazolidin-3-yl]piperidine-4-carboxylic acid] stands 0.016 µM; under `O=C(O)[C@@H]1CCC[C@H]1N1C(=O)S/C(=C\c2ccc3c(cnn3Cc3ccc(Cl)cc3C(F)(F)F)c2)C1=O` [Compound 142, (1R,2R)-2-[(5Z)-5-({1-[4-Chloro-2-(trifluoromethyl)benzyl]-1H-indazol-5-yl}methylidene)-2,4-dioxo-1,3-thiazolidin-3-yl]cyclopentanecarboxylic acid], 0.038 µM.
The compound `CN1C[C@@H](O)[C@H](N2C(=O)S/C(=C\c3ccc4c(cnn4Cc4ccc(Cl)cc4C(F)(F)F)c3)C2=O)C1` (relative stereo) [Compound 318] had an EC50 of 0.024 µM.
Consider `O=C1S/C(=C\c2ccc3c(cnn3Cc3ccc(Cl)cc3C(F)(F)F)c2)C(=O)N1C[C@@H]1C[C@@H](F)CN1` [Compound 184, (5Z)-5-({1-[4-Chloro-2-(trifluoromethyl)benzyl]-1H-indazol-5-yl}methylidene)-3-{[(2S,4R)-4-fluoropyrrolidin-2-yl]methyl}-1,3-thiazolidine-2,4-dione], for which the EC50 was 0.14 µM. This EC50 is about 5.8-fold higher than that of the compound before.
In turn, `COc1ccc(Cn2ncc3cc(/C=C4\SC(=O)N(C5CCN(S(N)(=O)=O)CC5)C4=O)ccc32)c(C(F)(F)F)c1` [Compound 32, 4-[(5Z)-5-({1-[4-Methoxy-2-(trifluoromethyl)benzyl]-1H-indazol-5-yl}methylidene)-2,4-dioxo-1,3-thiazolidin-3-yl]piperidine-1-sulfonamide] came in with an EC50 of 0.015 µM.
In the case of `CN(C)C1(CN2C(=O)S/C(=C\c3ccc4c(cnn4Cc4ccc(Cl)cc4C(F)(F)F)c3)C2=O)CCC1` [Compound 315, (5Z)-5-({1-[4-Chloro-2-(trifluoromethyl)benzyl]-1H-indazol-5-yl}methylidene)-3-{[1-(dimethylamino)cyclobutyl]methyl}-1,3-thiazolidine-2,4-dione] it was 0.071 µM; in that of `O=C1S/C(=C\c2ccc3c(cnn3Cc3ccc(Cl)cc3C(F)(F)F)c2)C(=O)N1CCN1CC[C@H](F)C1` [Compound 2, (5Z)-5-({1-[4-Chloro-2-(trifluoromethyl)benzyl]-1H-indazol-5-yl}methylidene)-3-{2-[(3S)-3-fluoro-pyrrolidin-1-yl]ethyl}-1,3-thiazolidine-2,4-dione], 0.185 µM.
The compound `COCCN1CCC[C@H]1CN1C(=O)S/C(=C\c2ccc3c(cnn3Cc3ccc(Cl)cc3C(F)(F)F)c2)C1=O` [Compound 152, (5Z)-5-({1-[4-Chloro-2-(trifluoromethyl)benzyl]-1H-indazol-5-yl}methylidene)-3-{[(2S)-1-(2-methoxyethyl)pyrrolidin-2-yl]methyl}-1,3-thiazolidine-2,4-dione] registered a concentration for a half-maximal effect (EC50) of 0.027 µM.
In the case of `CC(=O)N1CCN(CCN2C(=O)S/C(=C\c3ccc4c(cnn4Cc4ccc(Cl)cc4C(F)(F)F)c3)C2=O)CC1` [Compound 117, (5Z)-3-[2-(4-Acetylpiperazin-1-yl)ethyl]-5-({1-[4-chloro-2-(trifluoromethyl)benzyl]-1H-indazol-5-yl}methylidene)-1,3-thiazolidine-2,4-dione] it was 0.086 µM.
